Consider 31 compounds from US8859580B2 (Boehringer Ingelheim International GmbH, priority 2007, dated 2014).

Structures are written as SMILES.

The target in the assay is T1, 11β-HSD1 (Homo sapiens, UniProt P28845).
T1 construct: detecting cortisol generated from cortisterone by human liver microsomes; from tissue; host or cells: human liver microsomes
The experiment in a line: In vitro inhibition of 11β-HSD1, HTRF detection of cortisol generated from cortisone by human liver microsomes. In kind it is biochemical. To be noted: 11β-HSD IC50 (nM), 1 hour at 37° C., pH 6.0, NADPH 200 μM, cortisone 80 nM, inhibition relative to carbenoxolone signal. A digest of the protocol:
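Inhibition expressed against the carbenoxolone signal and fitted to IC50 curves. Readout: HTRF competition between microsomal cortisol and XL665-labelled cortisol for Eu-cryptate anti-cortisol antibody (typically 2 h), with emission ratio 665/615 calibrated to cortisol concentration.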

T1 sequence (P28845 whole entry): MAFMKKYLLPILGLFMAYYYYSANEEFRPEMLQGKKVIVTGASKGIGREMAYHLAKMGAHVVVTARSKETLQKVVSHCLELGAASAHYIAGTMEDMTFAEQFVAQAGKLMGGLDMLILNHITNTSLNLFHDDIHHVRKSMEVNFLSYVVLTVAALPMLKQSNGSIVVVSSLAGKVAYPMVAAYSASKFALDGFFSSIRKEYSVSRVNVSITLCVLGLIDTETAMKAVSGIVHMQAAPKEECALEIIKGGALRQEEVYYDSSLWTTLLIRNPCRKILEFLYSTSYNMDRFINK

For the compound `CCN(CC)Cc1ccc(C(=O)N2CC[C@@]3(C)c4cccc(O)c4C[C@@H]2C3(C)C)cc1` [Example 119, (4-Diethylaminomethyl-phenyl)-[(2R,6S)-10-hydroxy-6,11,11-trimethyl-1,2,5,6-tetrahydro-4H-2,6-methano-benzo[d]azocin-3-yl]-methanone], the IC50 (usually the concentration needed to halve the response being measured) was 1550 nM. In the case of `CC1(C)[C@H]2Cc3c(O)cccc3[C@]1(C)CCN2C(=O)c1ccc(CN2CCCC2)cc1` [Example 120, [(2R,6S)-10-Hydroxy-6,11,11-trimethyl-1,2,5,6-tetrahydro-4H-2,6-methano-benzo[d]azocin-3-yl]-(4-pyrrolidin-1-ylmethyl-phenyl)-methanone], the IC50 is 3840 nM. For `Cc1noc(C)c1C(=O)N1CC[C@@]2(C)c3cccc(O)c3C[C@@H]1C2(C)C` [Example 121], the midpoint of inhibition, the IC50, lay at 4120 nM. With `COc1cc(C(=O)N2CC[C@@]3(C)c4cccc(O)c4C[C@@H]2C3(C)C)ccc1CN1CCCC1=O` [Example 122, 1-{4-[(2R,6S)-10-Hydroxy-6,11,11-trimethyl-1,2,5,6-tetrahydro-4H-2,6-methano-benzo[d]azocine-3-carbonyl]-2-methoxy-benzyl}-pyrrolidin-2-one] the figure was 818 nM; with `CC1(C)[C@H]2Cc3c(O)cccc3[C@]1(C)CCN2C(=O)c1ccc(Cn2ccnc2)cc1` [Example 123, [(2R,6S)-10-Hydroxy-6,11,11-trimethyl-1,2,5,6-tetrahydro-4H-2,6-methano-benzo[d]azocin-3-yl]-(4-imidazol-1-ylmethyl-phenyl)-methanone], 297 nM. With `Cc1cc(C(=O)N2CC[C@@]3(C)c4cccc(O)c4C[C@@H]2C3(C)C)nn1C` [Example 124, (1,5-Dimethyl-1H-pyrazol-3-yl)-[(2R,6S)-10-hydroxy-6,11,11-trimethyl-1,2,5,6-tetrahydro-4H-2,6-methano-benzo[d]azocin-3-yl]-methanone] the figure was 658 nM; with `CC1(C)[C@H]2Cc3c(O)cccc3[C@]1(C)CCN2C(=O)c1ccc(CNC(=O)c2ccccc2)cc1` [Example 125, N-{4-[(2R,6S)-10-Hydroxy-6,11,11-trimethyl-1,2,5,6-tetrahydro-4H-2,6-methano-benzo[d]azocine-3-carbonyl]-benzyl}-benzamide], 989 nM; with `CC1(C)[C@H]2Cc3c(O)cccc3[C@]1(C)CCN2C(=O)c1ccncc1` [Example 126, [(2R,6S)-10-Hydroxy-6,11,11-trimethyl-1,2,5,6-tetrahydro-4H-2,6-methano-benzo[d]azocin-3-yl]-pyridin-4-yl-methanone], 1270 nM. With `CC1(C)[C@H]2Cc3c(O)cccc3[C@]1(C)CCN2C(=O)c1cccnc1` [Example 127, [(2R,6S)-10-Hydroxy-6,11,11-trimethyl-1,2,5,6-tetrahydro-4H-2,6-methano-benzo[d]azocin-3-yl]-pyridin-3-yl-methanone] the figure was 1470 nM. Turning to `CC1(C)[C@H]2Cc3c(O)cccc3[C@]1(C)CCN2C(=O)c1ccccn1` [Example 128, [(2R,6S)-10-Hydroxy-6,11,11-trimethyl-1,2,5,6-tetrahydro-4H-2,6-methano-benzo[d]azocin-3-yl]-pyridin-2-yl-methanone], the IC50 amounted to 1290 nM.

`CC1(C)[C@H]2Cc3c(O)cccc3[C@]1(C)CCN2C(=O)c1ccncn1` [Example 129, [(2R,6S)-10-Hydroxy-6,11,11-trimethyl-1,2,5,6-tetrahydro-4H-2,6-methano-benzo[d]azocin-3-yl]-pyrimidin-4-yl-methanone] came in with an IC50 of 5850 nM.

Turning to `CC1(C)[C@H]2Cc3c(O)cccc3[C@]1(C)CCN2C(=O)c1ccc(CN2CCCC2=O)cc1` [Example 130, 1 -{4-[(2R,6S)-10-Hydroxy-6,11,11-trimethyl-1,2,5,6-tetrahydro-4H-2,6-methano-benzo[d]azocine-3-carbonyl]-benzyl}-pyrrolidin-2-one], the IC50 was 1610 nM. Turning to `CC1(C)[C@H]2Cc3c(O)cccc3[C@]1(C)CCN2C(=O)c1ccc(Cn2cncn2)cc1` [Example 131, [(2R,6S)-10-Hydroxy-6,11,11-trimethyl-1,2,5,6-tetrahydro-4H-2,6-methano-benzo[d]azocin-3-yl]-(4-[1,2,4]triazol-1-ylmethyl-phenyl)-methanone], the IC50 worked out at 361 nM. `CC(=O)NCc1ccc(C(=O)N2CC[C@@]3(C)c4cccc(O)c4C[C@@H]2C3(C)C)cc1` [Example 132, N-{4-[(2R,6S)-10-Hydroxy-6,11,11-trimethyl-1,2,5,6-tetrahydro-4H-2,6-methano-benzo[d]azocine-3-carbonyl]-benzyl}-acetamide] had an IC50 of 958 nM. With `CC1(C)[C@H]2Cc3c(O)cccc3[C@]1(C)CCN2C(=O)c1ccc(C(=O)N2CCCC2)cc1` [Example 133, [(2R,6S)-10-Hydroxy-6,11,11-trimethyl-1,2,5,6-tetrahydro-4H-2,6-methano-benzo[d]azocin-3-yl]-[4-(pyrrolidine-1-carbonyl)-phenyl]-methanone] the figure was 941 nM; with `CC1(C)[C@H]2Cc3c(O)cccc3[C@]1(C)CCN2C(=O)c1ccc(C(=O)N2CCOCC2)cc1` [Example 134, [(2R,6S)-10-Hydroxy-6,11,11-trimethyl-1,2,5,6-tetrahydro-4H-2,6-methano-benzo[d]azocin-3-yl]-[4-(morpholine-4-carbonyl)-phenyl]-methanone], 1230 nM; with `CC1(C)[C@H]2Cc3c(O)cccc3[C@]1(C)CCN2C(=O)c1ccc(C(=O)Nc2ccccc2)cc1` [Example 135, 4-[(2R,6S)-10-Hydroxy-6,11,11-trimethyl-1,2,5,6-tetrahydro-4H-2,6-methano-benzo[d]azocine-3-carbonyl]-N-phenyl-benzamide], 3520 nM.

In turn, `CC1(C)[C@H]2Cc3c(O)cccc3[C@]1(C)CCN2C(=O)c1ccc(C(=O)NCc2ccccc2)cc1` [Example 137, N-Benzyl-4-[(2R,6S)-10-hydroxy-6,11,11-trimethyl-1,2,5,6-tetrahydro-4H-2,6-methano-benzo[d]azocine-3-carbonyl]-benzamide] returned an IC50 of 3620 nM. With `CCNC(=O)c1ccc(C(=O)N2CC[C@@]3(C)c4cccc(O)c4C[C@@H]2C3(C)C)cc1` [Example 138, N-Ethyl-4-[(2R,6S)-10-hydroxy-6,11,11-trimethyl-1,2,5,6-tetrahydro-4H-2,6-methano-benzo[d]azocine-3-carbonyl]-benzamide] the figure was 2810 nM.

Take `Cc1cccc2c1C[C@H]1N(C(=O)c3ccc4nc[nH]c4c3)CC[C@]2(C)C1(C)C` [Example 139, (3H-Benzoimidazol-5-yl)-[(2R,6S)-6,10,11,11-tetramethyl-1,2,5,6-tetrahydro-4H-2,6-methano-benzo[d]azocin-3-yl]-methanone]: the IC50 amounted to 92 nM. With `CC1(C)[C@H]2Cc3c(F)cccc3[C@]1(C)CCN2C(=O)c1ccc2nc[nH]c2c1` [Example 140, (3H-Benzoimidazol-5-yl)-[(2R,6S)-10-fluoro-6,11,11-trimethyl-1,2,5,6-tetrahydro-4H-2,6-methano-benzo[d]azocin-3-yl]-methanone] the figure was 48 nM; with `CC12CCN(C(=O)c3ccc4nc[nH]c4c3)C(Cc3cc(N)ccc31)C2(C)C` (stereo not shown) [Example 141, (9-Amino-6,11,11-trimethyl-1,2,5,6-tetrahydro-4H-2,6-methano-benzo[d]azocin-3-yl)-(3H-benzoimidazol-5-yl)-methanone], 59 nM. With `CC1CN(Cc2ccc(C(=O)N3CC[C@@]4(C)c5cccc(O)c5C[C@@H]3C4(C)C)cc2)CCO1` (stereo partly shown) [Example 142] the figure was 689 nM; with `CC12CCN(C(=O)c3ccc4nc[nH]c4c3)C(Cc3cc4c(cc31)OCO4)C2(C)C` (stereo not shown) [Example 143, (8,9-Methylenedioxy-6,11,11-trimethyl-1,2,5,6-tetrahydro-4H-2,6-methano-benzo[d]azocin-3-yl)-(3H-benzoimidazol-5-yl)-methanone], 123 nM; with `CC1(C)[C@H]2Cc3c(O)cccc3[C@]1(C)CCN2C(=O)c1ccncc1Cl` [Example 144, (3-Chloro-pyridin-4-yl)-[(2R,6S)-10-hydroxy-6,11,11-trimethyl-1,2,5,6-tetrahydro-4H-2,6-methano-benzo[d]azocin-3-yl]-methanone], 2560 nM. With `CC12CCN(C(=O)c3ccc4nc[nH]c4c3)C(Cc3cc(F)ccc31)C2(C)C` (stereo not shown) [Example 145, (3H-Benzoimidazol-5-yl)-(9-fluoro-6,11,11-trimethyl-1,2,5,6-tetrahydro-4H-2,6-methano-benzo[d]azocin-3-yl)-methanone] the figure was 108 nM; with `COc1cccc2c1CC1N(C(=O)c3ccc4nc[nH]c4c3)CCC2C1(C)C` (stereo not shown) [Example 146, (3H-Benzoimidazol-5-yl)-(10-methoxy-11,11-dimethyl-1,2,5,6-tetrahydro-4H-2,6-methano-benzo[d]azocin-3-yl)-methanone], 384 nM.

In turn, `COc1ccc2c(c1)C[C@@H]1N(C(=O)c3ccc4nc[nH]c4c3)CC[C@@]2(C)C1(C)C` [Example 147, (3H-Benzoimidazol-5-yl)-[(2S,6R)-9-methoxy-6,11,11-trimethyl-1,2,5,6-tetrahydro-4H-2,6-methano-benzo[d]azocin-3-yl]-methanone] registered a half-maximal inhibitory concentration (IC50) of 1010 nM. With `O=C(c1ccc2nc[nH]c2c1)N1CCC2(c3ccccc3)CC1Cc1ccccc12` (stereo not shown) [Example 148, (3H-Benzoimidazol-5-yl)-(6-phenyl-1,2,5,6-tetrahydro-4H-2,6-methano-benzo[d]azocin-3-yl)-methanone] the figure was 556 nM; with `O=C(c1ccc2nc[nH]c2c1)N1CCC2(c3ccccc3)CC1Cc1ccc(O)cc12` (stereo not shown) [Example 149, (3H-Benzoimidazol-5-yl)-(8-hydroxy-6-phenyl-1,2,5,6-tetrahydro-4H-2,6-methano-benzo[d]azocin-3-yl)-methanone], 374 nM. Under `CC1(C)C2Cc3ccc(O)cc3C1(c1ccccc1)CCN2C(=O)c1ccc2nc[nH]c2c1` (stereo not shown) [Example 150, (3H-Benzoimidazol-5-yl)-(8-hydroxy-11,11-dimethyl-6-phenyl-1,2,5,6-tetrahydro-4H-2,6-methano-benzo[d]azocin-3-yl)-methanone] stands 438 nM.
